Values of other authors, collected in US7179253B2, “Method of tattoo removal” (3M Innovative Properties Company, priority 2003, dated 2007).

Tested on: tattoo ink pigments in tattooed regions
Settings: guinea pigs; topical 5% cream started within six hours of tattoo application, continued for seven days

Compound: CC(C)Cn1cnc2c(N)nc3ccccc3c21 [imiquimod, 1-(2-methylpropyl)-1H-imidazo[4,5-c]quinolin-4-amine]
- visible tattoo pigment in the tattooed regions at the conclusion of the treatment period: no pigment of any color was visible
